pIC50: −log10 of the molar value. Where “and” joins values, the source holds several entries; their conditions need not be identical. Identical values can stand only once.
Columns and labels:
PSMA (LS174T-PSMA cells) [1] = biological target: T1, PSMA (LS174T-PSMA cells) (Homo sapiens, UniProt Q04609); experiment: Binding and internalization assay with 111In-labelled ligands on PSMA-expressing LS174T-PSMA cells; assay type: cell-based; settings: for Average binding %, Internalized / Average binding %, Membrane bound / Average binding %, Total: 111In-labelled, 50,000 cpm, 2 h at 37° C., LS174T-PSMA cells
T1 construct: expressed in transfected cells
T1 sequence (Q04609 whole entry): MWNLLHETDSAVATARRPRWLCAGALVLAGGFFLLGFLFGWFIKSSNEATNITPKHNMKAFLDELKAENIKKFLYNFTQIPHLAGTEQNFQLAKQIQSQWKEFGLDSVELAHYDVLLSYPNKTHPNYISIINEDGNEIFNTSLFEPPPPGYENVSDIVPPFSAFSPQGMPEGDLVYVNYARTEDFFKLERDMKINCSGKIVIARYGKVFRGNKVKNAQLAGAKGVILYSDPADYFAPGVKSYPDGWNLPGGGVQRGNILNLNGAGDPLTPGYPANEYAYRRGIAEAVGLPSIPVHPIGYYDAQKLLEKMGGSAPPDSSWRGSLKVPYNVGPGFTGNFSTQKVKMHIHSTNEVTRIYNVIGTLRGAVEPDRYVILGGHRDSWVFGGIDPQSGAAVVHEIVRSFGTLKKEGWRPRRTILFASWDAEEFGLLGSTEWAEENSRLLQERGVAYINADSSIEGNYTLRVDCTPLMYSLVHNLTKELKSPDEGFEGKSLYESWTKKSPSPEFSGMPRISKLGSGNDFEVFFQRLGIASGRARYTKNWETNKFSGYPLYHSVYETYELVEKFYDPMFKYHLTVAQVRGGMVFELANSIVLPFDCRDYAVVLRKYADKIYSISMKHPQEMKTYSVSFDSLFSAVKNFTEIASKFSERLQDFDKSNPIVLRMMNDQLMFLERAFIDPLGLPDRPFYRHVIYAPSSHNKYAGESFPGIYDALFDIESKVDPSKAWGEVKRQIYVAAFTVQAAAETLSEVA
Description: Each labelled ligand (0.01 mL) was dissolved in PBS (0.5 mL) and diluted 1:10:100 in three tubes, resulting in tube 1 1×, tube 2 10× and tube 3 100× dilution. The tubes were measured by a gamma-counter to determine the counts per minute of known ligand concentrations. The calculated amounts of ligand were transferred from tubes 2 into new tubes and filled with binding buffer to total volume 0.5 mL. These solutions are needed for the binding and internalization assay.
Two days before the assay, four six-well plates were plated with 0.3-1.0 million PSMA-expressing LS174T-PSMA cells per well in culture medium (2 mL). On the day of the assay, the cells were washed with PBS. Binding buffer (0.5% BSA in RMPI 1640, 2 mL) and 50,000 counts per minute of radiolabelled PSMA-ligand (0.005 mL) were added from tubes prepared according to calculation with standards. Each ligand was examined in triplicate. The cells were incubated at 37° C. for 2 hours and after this the medium was removed. The cells were washed with ice-cold PBS and cooled to 0° C. After incubating the cells with acid buffer pH 2.6 (0.1M acetic acid, 0.15 M NaCl, 2 mL) for 10 minutes, the membrane-bound ligands were collected in tubes. The cells were washed with ice-cold PBS again and these fractions were collected as control. NaOH was added to the cells (0.1 M, 2 mL) for 10 minutes to lyse the cells and free the internalized ligands. The ^111In-radiocounts per minute of all fractions and standards were measured by a gamma-counter. From this, the ligand-PSMA binding percentages and internalization fraction were quantified.

[2] = Lipophilicity, LogD of radiolabeled ligands in PBS (pH 7.4) / n-octanol; assay type: physicochemical; settings: radiolabeled ligand
Description: (§1) IC50: The 50% inhibitory concentration (IC50) of the ligands was determined using LS174T-PSMA cells in a competitive binding assay. The LS174T-PSMA cells were cultured to confluency in 6-wells plates, followed by incubation on ice for 2 h in 1 mL of binding buffer (RPMI/0.5% BSA) with 50,000 cpm of ^111In-labeled PSMA-617 and a series of increasing concentrations (0.01-300 nM) of unlabeled PSMA ligands. After incubation, cells were washed with 2 ml PBS and lysed with 1.5 ml 0.1 M NaOH. Cell lysis was collected from the plate and the cell-associated activity was measured in a gamma-counter and IC50 values were calculated using GraphPad Prism software version 5.03. Lipophilicity: LogD values of all radiolabeled ligands were determined by adding 300,000 cpm (0.6-1.5 pmol) to a mixture of 3 ml PBS (pH 7.4) and 3 ml n-octanol. Tubes were vortexed vigorously for 1 min and centrifuged for 5 min at 201×g. The concentration of radioactivity in a defined volume of each layer was measured in a well-type gamma-counter.

PSMA (LS174T-PSMA cells) [3] = biological target: T1, PSMA (LS174T-PSMA cells); experiment: Alternative internalization assay in LS174T-PSMA cells; assay type: cell-based; settings: 2 h at 37° C.
Description: Alternative internalization assay: binding and internalization characteristics of all ligands were compared using LS174T-PSMA and wildtype LS174T cells, cultured to confluency in 6-wells plates. Cells were incubated with 50,000 counts per minute (cpm) ^111In- or ^99mTc-labeled PSMA ligand (0.1-0.25 pmol/well) in 1 ml binding buffer (RPMI/0.5% BSA) for 2 h at 37° C. Nonspecific binding was determined by co-incubation with 2-(phosphonomethyl) pentane-1,5-dioic acid (2-PMPA, 21.57 µM). Cells were washed with PBS and incubated with acid buffer (0.1 M acetic acid, 154 mM NaCl, pH 2.6) for 10 minutes at 0° C. to retrieve the membrane-bound fraction. After this, the membrane-bound fraction was collected, cells were washed, lysed with 1.5 ml 0.1 M NaOH and cell lysis (intracellular activity) was collected. Membrane-bound activity and intracellular activity fractions were measured in a gamma-counter (2480 WIZARD^2 Automatic Gamma Counter, PerkinElmer) (6,42).

PSMA (LS174T-PSMA cells) [4] = biological target: T1, PSMA (LS174T-PSMA cells); experiment: Competitive binding assay against 111In-labeled PSMA-617 using LS174T-PSMA cells; settings: on ice 2 h, 111In-labeled PSMA-617 as competitor, unlabeled ligand 0.01-300 nM
Description: as §1

| Structure (SMILES) | Average binding %, Internalized (PSMA (LS174T-PSMA cells) [1]) [%] | Average binding %, Membrane bound (PSMA (LS174T-PSMA cells) [1]) [%] | Average binding %, Total (PSMA (LS174T-PSMA cells) [1]) | total binding to PSMA expressing cells relative to PSMA-617 (PSMA (LS174T-PSMA cells) [1]; ratio of total binding percentages) [times] | LogD [2] | Internalization Ratio (%) (PSMA (LS174T-PSMA cells) [3]) | pIC50 (PSMA (LS174T-PSMA cells) [4]) |
| --- | --- | --- | --- | --- | --- | --- | --- |
| O=C(O)CC[C@H](NC(=O)N[C@@H](CCCCNC(=O)[C@H](Cc1ccc2ccccc2c1)NC(=O)c1ccc(CNC(=O)[C@H](CCCCNC(=O)CN2CCN(CC(=O)O)CCN(CC(=O)O)CCN(CC(=O)O)CC2)NC(=O)[C@H](CCC(=O)O)NC(=O)c2ccccc2)cc1)C(=O)O)C(=O)O [Compound K9] | 9.06 | 9.87 | 18.9% and 18.93% | 2.6 | – | – | – |
| CC1(C)C(=CC=C2CCCC(C=CC3=[N+](CCCCCC(=O)NCCCCC(NC(=O)CN4CCN(CC(=O)O)CCN(CC(=O)O)CCN(CC(=O)O)CC4)C(=O)NCCCCC(NC(=O)C(CCC(=O)O)NC(=O)c4cccnc4)C(=O)NCc4ccc(C(=O)NC(Cc5ccc6ccccc6c5)C(=O)NCCCCC(NC(=O)NC(CCC(=O)O)C(=O)O)C(=O)O)cc4)c4ccc(S(=O)(=O)O)cc4C3(C)C)=C2Oc2ccc(S(=O)(=O)O)cc2)N(CCCCS(=O)(=O)O)c2ccc(S(=O)(=O)O)cc21 (stereo not shown) [Compound K11] | – | – | – | – | −4.4 +/− 0.01 | 74.1 +/− 20.3% | 6.51 |
| CC(=O)SCC(=O)NCC(=O)NCC(=O)NCC(=O)NC(CCCCNC(=O)CCCCC[N+]1=C(C=CC2=C(Oc3ccc(S(=O)(=O)O)cc3)C(=CC=C3N(CCCCS(=O)(=O)O)c4ccc(S(=O)(=O)O)cc4C3(C)C)CCC2)C(C)(C)c2cc(S(=O)(=O)O)ccc21)C(=O)NCCCCC(NC(=O)C(CCC(=O)O)NC(=O)c1cccnc1)C(=O)NCc1ccc(C(=O)NC(Cc2ccc3ccccc3c2)C(=O)NCCCCC(NC(=O)NC(CCC(=O)O)C(=O)O)C(=O)O)cc1 (stereo not shown) [Compound K12] | – | – | – | – | −3.5 +/− 0.01 | 61.0 +/− 12.8% | 6.32 |
| CC1(C)C(/C=C/C2=C(Oc3ccc(S(=O)(=O)O)cc3)C(=C/C=C3/N(CCCCS(=O)(=O)O)c4ccc(S(=O)(=O)O)cc4C3(C)C)/CCC2)=[N+](CCCCCC(=O)NCCC(=O)N2Cc3ccccc3-c3c(cnn3CCCCC(NC(=O)CN3CCN(CC(=O)O)CCN(CC(=O)O)CCN(CC(=O)O)CC3)C(=O)NCCCC[C@H](NC(=O)[C@H](CCC(=O)O)NC(=O)c3cccnc3)C(=O)NCc3ccc(C(=O)N[C@@H](Cc4ccc5ccccc5c4)C(=O)NCCCC[C@H](NC(=O)N[C@@H](CCC(=O)O)C(=O)O)C(=O)O)cc3)-c3ccccc32)c2ccc(S(=O)(=O)O)cc21 (stereo partly shown) [Compound K13] | – | – | – | – | −3.2 +/− 0.16 | 80.6 +/− 11.6% | 6.73 |
| O=C(O)CC[C@H](NC(=O)N[C@@H](CCCCNC(=O)[C@H](Cc1ccc2ccccc2c1)NC(=O)[C@H]1CC[C@H](CNC(=O)CN2CCN(CC(=O)O)CCN(CC(=O)O)CCN(CC(=O)O)CC2)CC1)C(=O)O)C(=O)O [PSMA-617, reference compound] | 3.39 | 3.80 | 7.19% | – | −4.1 +/− 0.01 | 48.4 +/− 12.4% | 8.07 |

— patent US20250332290A1, “PSMA-TARGETING LIGANDS FOR MULTIMODAL APPLICATIONS” (STICHTING RADBOUD UNIVERSITAIR MEDISCH CENTRUM, priority 2021, published 2025)
